Measurements published in patent US4405627A, “Diphenylpropylamino-pyridine compounds useful as medicines” (Italiana Schoum S.p.A., priority 1979, dated 1983).
pIC50: −log10 of the molar value. Counter-ions that a name gives are not always drawn.

What was measured:
[1] = system: rabbit ileum; test: Spontaneous motility in vitro of rabbit ileum; set-up: species or system rabbit (New Zealand male); conditions: Oryctolagus cuniculus; 50% reduction of amplitude of the basal contraction; Tyrode, 37° C.; read-out: CI50 (the source's name)
Description: The spontaneous motility of the preparations was measured by a isotonic transducer connected with a microdynamometer. Each preparation was previously left dipped for about one hour in the solution up to reach the osmotic equilibrium.
After this time the single compounds were poured in the bath in gradual doses up to notice the quite total disappearance of spontaneous activity in the organ. For sake of comparison parallel tests with papaverine were carried out.

[2] = system: guinea pig ileum; test: BaCl2-induced contraction on guinea pig ileum in vitro; set-up: species or system guinea pig (Whitish female); conditions: for pIC50: Cavia porcellus, BaCl2 50 mcg/ml, Tyrode, 37° C., 3 minutes before spasmogen, read-out: CI50 (the source's name); for BaCl2-induced contraction on guinea pig ileum: result in words
Description: (§1) On the guinea pig ileum, which has a minimum intrinsic motility but a remarkable sensibility to agents causing a contracture or a relaxation of the intestinal smooth muscular system, it was possible to further evaluate the spasmolytic activity of the examined substances. As spasmogenic agents acetylcholine and BaCl2 were used which were respectively added to the bath at final concentrations of 0.1 mcg/ml and 50 mcg/ml.
(§2) Ten preparations of guinea pig ileum for each compound were prepared, yet maintaining the same dose range which was used on rabbit ileum.
(§3) The contractions were measured by means of an isotonic transducer connected with a microdynamometer. Each preparation was left dipped for about 30 minutes up to reach the equilibrium.
(§4) After this time, the single doses of each substance to be examined were introduced three minutes before the spasmogenic substance which was contacted with the preparation for 1 minute. Before the subsequent dose of drug was introduced, the tested organ was allowed to recover the basal conditions and this was ascertained by using the only spasmogenic substance. The process was repeated for all the other concentrations. Afterwards the comparison with the reference spasmolytic substance having a known activity, namely papaverine, was carried out yet working in the same conditions and according to the same procedure.

[3] = system: guinea pig ileum; test: Acetylcholine-induced contraction on guinea pig ileum in vitro; set-up: species or system guinea pig (Whitish female); conditions: for pIC50: Cavia porcellus, acetylcholine 0.1 mcg/ml, Tyrode, 37° C., 3 minutes before spasmogen, read-out: CI50 (the source's name); for acetylcholine-induced contraction on guinea pig ileum: result in words
Description: as §1, §2, §3, §4

[4] = Acute toxicity (DL50) in mouse; type: in vivo; conditions: mouse, in vivo
Description: (§5) The determination of the lethal dose to 50% of the animals which were treated with the examined substances was obtained by using male Swiss mice averaging 22 g and by considering two administration ways: oral and intraperitoneal.
(§6) Groups of six animals of each dose were prepared which were kept under observation for 7 days and fasting since the evening before the experience.
(§7) During the observation period possible and clear changes in activity and behaviour were controlled by using the Irwin test: a behavioural outline of the treated animals was obtained with respect to other subjects which received reference drugs.
(§8) The calculation of acute toxicity was carried out by using the Litchfield and Wilcoxon procedure (J. Pharmac. Exp. Ther. 96, 99, 1949).
(§9) The acute toxicity values in mg/kg are given in table 9 in the form of average values with the relevant fiducial limits in comparison with papaverine.

[5] = system: small intestine; test: Effect on the intestinal progress of opaque meal in rat; type: in vivo, rat (Male Wistar); conditions: for Progress %: 40 minutes after opaque meal, mean of ten ± standard error, controls 81.76 ± 2.33
Description: Male Wistar rats weighing 150-180 g were employed subdivided in groups of ten subjects, which were maintained fasting for 18 hours before the test.
Two administration ways were considered: oral and intraperitoneal.
In the first set of tests to every group of animals each compound was orally administered in the form of an aqueous solution or suspension in gum-arabic (10% in water) 40 minutes before an opaque meal consisting of a suspension of 5% vegetable charcoal in gum-arabic (20% in water).
The animals were killed by cranial injury 40 minutes after the oral administration of the opaque meal and the small intestine was drawn. To the control group an equal volume of saline was administered in the same administration way. The second set of tests was carried out by administering intraperitoneally the compounds 30 minutes before the opaque meal. The animals were killed 40 minutes after the swallowing of the alimentary bolus and the small intestine was drawn; to the control group an equal volume of saline was injected. The total length of small intestine and the progress of opaque meal were measured in each killed animal.

[6] = system: rabbit ileum; test: BaCl2-induced contraction on isolated rabbit ileum; conditions: Oryctolagus cuniculus; 50% reduction of the BaCl2-induced contraction; BaCl2 50 mcg/ml; read-out: CI50 (the source's name)
Excerpt: The activity of same compounds in antagonizing the spasm as caused by BaCl2 introduced in the bath at a concentration of 50 mcg/ml one minute before each test was studied. Also for this preparation a comparison with papaverine was at last carried out.

[7] = system: acetylcholine-induced chromodacryorrhea; test: Anticholinergic activity on chromodacryorrhea from acetylcholine; type: in vivo, rat (male Wistar); conditions: for Chromodacryorrhea: acetylcholine 160 mcg s.c.; for effect on acetylcholine-induced chromodacryorrhea: 50 mg/kg, result in words
Description: (§10) In order to evaluate the possible undesirable collateral systemic effects, tests of central and peripheral anticholinergic activity were carried out by using two animal species, mouse and rat.
Another series of experiments was carried out on male Wistar rats averaging 150 g in order to point out the anticholinergic activity at the glandular level.
A first control group consisting of six animals was subcutaneously injected with 160 mcg of acetylcholine.

[8] = system: effects caused by Tremorin; test: Central and peripheral anticholinergic activity in mouse after administration of Tremorin; type: in vivo, mouse (Swiss male); conditions: for Tremors / Miosis / Ptyalism: Tremorin 25 mg/kg i.p.; for Tremors: central activity; for Miosis / Ptyalism: peripheral activity; for antagonism of the effects of Tremorin / anticholinergic side effects: result in words, hydrochloride; on Miosis: key: +: Presence of the effect (ptyalism, miosis, tremors); -: Lack of the effect (ptyalism, miosis, tremors); on Ptyalism: key: +: Presence of the effect (ptyalism, miosis, tremors); -: Lack of the effect (ptyalism, miosis, tremors); on Tremors: key: +: Presence of the effect (ptyalism, miosis, tremors); -: Lack of the effect (ptyalism, miosis, tremors)
Description: as §10
In the first series of tests Swiss male mice averaging 25 g were used which were subdivided in three groups of 8 animals. […] The third, control group was given an equal volume of saline.
In watching the effects caused by Tremorin during the development of its action, beside the time for the appearance of tremors as an index of the central activity, further parameters such as ptyalism and miosis were contemplated as indexes of peripheral activity.

[9] = Solubility; type: physicochemical; conditions: saline; read-out: maximum dose consistent with the total solubility in saline
[10] = system: mouse; test: Acute toxicity (DL50) in mouse; type: in vivo; conditions: result in words; orally and intraperitoneally
Description: as §5, §6, §7, §8, §9

[11] = system: carbachol-stimulated intestinal motility; test: Effect on intestinal progress in rats after excitation with carbachol; type: in vivo, rat; conditions: 40 mg/kg i.p.; carbachol 30 mcg/kg i.p.; mean of ten ± standard errors; non-stimulated controls 55.7 ± 2.23, stimulated controls 77.95 ± 1.72
Description: Subsequently a further series of tests were carried out in order to evaluate the capability of some examined compounds in hindering the stimulating action on intestinal motility of a dose of carbachol at the concentration of 30 mcg/kg when intraperitoneally administered. Carbachol or carbamylcholine chloride is a known substance endowed with parasympathomimetic action.
The control group was given an equal volume of saline.
The survey of the data as given in tables 6 was carried out as previously described by considering the percent intestinal progress of opaque meal with respect to the total length of small intestine.

[12] = po, os, average values with fiducial limits, 7 days observation
[13] = ip, average values with fiducial limits, 7 days observation

pIC50 [1] | pIC50 [3] | Compound | pIC50 [2] | LD50 at 168 h [4, 12] | BaCl2-induced contraction on guinea pig ileum [2] | acetylcholine-induced contraction on guinea pig ileum [3] | pIC50 [6] | also measured
4.74 | 5.21 | CC[n+]1ccccc1NCCC(c1ccccc1)c1ccccc1 [2-(3',3'-diphenylpropyl-1'-amino)-1-ethylpyridinium iodide] | 5.47 |  |  |  |  | 
4.80 | 4.92 | CC[n+]1cccc(NCCC(c2ccccc2)c2ccccc2)c1 [3-(3',3'-diphenylpropyl-1'-amino)-1-ethylpyridinium iodide] |  |  |  |  | 4.46 | 
4.82 | 4.77 | C[n+]1cccc(NCCC(c2ccccc2)c2ccccc2)c1 [3-(3',3'-diphenylpropyl-1'-amino)-1-methylpyridinium iodide] |  |  |  |  | 4.85 | 
4.62 | 5.00 | CC[n+]1ccc(NCCC(c2ccccc2)c2ccccc2)cc1 [4-(3',3'-diphenylpropyl-1'-amino)-1-ethyl-pyridinium iodide] | 5.05 |  |  |  | 4.66 | 
4.74 | 4.80 | C[n+]1ccc(NCCC(c2ccccc2)c2ccccc2)cc1 [4-(3',3'-diphenylpropyl-1'-amino)-1-methyl-pyridinium iodide] |  |  |  |  | 4.85 | 
 |  | CN1[C@@H]2CC[C@H]1C[C@@H](OC(=O)C(CO)c1ccccc1)C2 (stereo partly shown) [Atropine sulfate, reference compound] |  |  |  |  |  | Chromodacryorrhea ([7]; 1 mg/kg i.p.): -; Tremors ([8]; 60 mg/kg i.p.): -; Miosis ([8]; 60 mg/kg i.p.): -; Ptyalism ([8]; 60 mg/kg i.p.): -

Compound | pIC50 [1] | pIC50 [3] | pIC50 [2] | LD50 at 168 h [4, 12] | BaCl2-induced contraction on guinea pig ileum [2] | acetylcholine-induced contraction on guinea pig ileum [3] | pIC50 [6] | also measured
C[n+]1ccccc1NCCC(c1ccccc1)c1ccccc1 [2-(3',3'-diphenylpropyl-1'-amino)-1-methylpyridinium iodide] | 4.59 | 5.34 | 5.37 | 350 mg/kg | more active than papaverine | also effective on the acetylcholine-induced contraction | 5.00 | Progress % ([5]; 100 mg/kg os): 73.63 ± 4.33%
c1ccc(C(CCNc2ccccn2)c2ccccc2)cc1 [N-(2'-pyridyl)-3,3-diphenylpropylamine hydrochloride] | 4.89 | 4.96 | 5.25 |  | more active than papaverine | also effective on the acetylcholine-induced contraction | 4.85 | solubility [9]: 1000 µg/mL; LD50 at 168 h ([4]; ip): 360 mg/kg; LD50 at 168 h ([4]; po): > 1500 mg/kg; acute toxicity [10]: The less toxic compound; Chromodacryorrhea ([7]; 50 mg/kg i.p.): +; effect on acetylcholine-induced chromodacryorrhea [7]: do not modify the acetylcholine-induced chromodacryorrhea; Progress % [11]: 42.25 ± 3.34%; Tremors ([8]; 50 mg/kg i.p.): +; Miosis ([8]; 50 mg/kg i.p.): +; Ptyalism ([8]; 50 mg/kg i.p.): +; Tremors ([8]; 100 mg/kg i.p.): +; Miosis ([8]; 100 mg/kg i.p.): +; Ptyalism ([8]; 100 mg/kg i.p.): +; antagonism of the effects of Tremorin / anticholinergic side effects ([8]; listed as N-(2'-pyridyl)-3,3-diphenyl-propylamine hydrochloride): does not antagonize the ffects of Tremorin neither at a central level nor at a peripheral level; antagonism of the effects of Tremorin / anticholinergic side effects ([8]; listed as N-(2'-pyridyl)-3,3-diphenylpropylamine hydrochloride): does not show anticholinergic side effects at a central level also at high doses; Progress % ([5]; 20 mg/kg i.p.): 62.10 ± 2.54%; Progress % ([5]; 50 mg/kg os): 67.65 ± 2.54%; reducing the progress of an opaque meal ([5]; oral and intraperitoneal, result in words): the most active compound in reducing the progress of an opaque meal in both of the considered administration ways
c1ccc(C(CCNc2cccnc2)c2ccccc2)cc1 [N-(3'-pyridyl)-3,3-diphenylpropylamine hydrochloride] | 4.92 | 5.00 | 5.17 | > 800 mg/kg | more active than papaverine | also effective on the acetylcholine-induced contraction | 4.55 | solubility [9]: 1000 µg/mL; LD50 at 168 h [4, 13]: 340 mg/kg; Chromodacryorrhea ([7]; 50 mg/kg i.p.): +; effect on acetylcholine-induced chromodacryorrhea [7]: do not modify the acetylcholine-induced chromodacryorrhea; Progress % [11]: 49.85 ± 3.34%; Tremors ([8]; 50 mg/kg i.p.): -; Miosis ([8]; 50 mg/kg i.p.): +; Ptyalism ([8]; 50 mg/kg i.p.): +; Tremors ([8]; 100 mg/kg i.p.): -; Miosis ([8]; 100 mg/kg i.p.): -; Ptyalism ([8]; 100 mg/kg i.p.): -; Progress % ([5]; 20 mg/kg i.p.): 75.06 ± 5.94%; Progress % ([5]; 100 mg/kg os): 79.10 ± 5.3%
COc1ccc(Cc2nccc3cc(OC)c(OC)cc23)cc1OC [Papaverine hydrochloride, reference compound] | 4.41 | 5.07 | 5.04 | 315 mg/kg |  |  | 4.25 | LD50 at 168 h [4, 13]: 66 mg/kg; Progress % ([5]; 200 mg/kg os): 70.2 ± 2.61%
